According to patent US9714247B2, “Multiple kinase pathway inhibitors” (Mannkind Corporation, priority 2012, dated 2017):
Like-named read-outs stand apart in the source and are kept apart here.

Columns and labels:
Ramos = experiment: CellTiter-Glo proliferation/viability assay; format: cell-based, human; conditions: Homo sapiens, Ramos, read-out: Ramos EC50
CDK2/cyclinA(h) = CDK2/cyclinA(h) (Homo sapiens (Human), UniProt P24941); experiment: IC50 profiler radiometric kinase assay (Millipore); format: biochemical; conditions: CMGC
Lyn = Lyn (Homo sapiens (Human), UniProt P07948); experiment: biochemical
BTK = BTK (Homo sapiens (Human), UniProt Q06187); conditions: read-out: BTK IC50
[1] = biological target: PI3 Kinase (p110α/p85α)(h) (Homo sapiens (Human), UniProt P42336); experiment: IC50 profiler radiometric kinase assay (Millipore); format: biochemical; conditions: Lipid/Atypical
CaMKI(h) = CaMKI(h) (Homo sapiens (Human), UniProt Q14012); experiment: IC50 profiler radiometric kinase assay (Millipore); format: biochemical; conditions: CAMK
DoHH2 = experiment: CellTiter-Glo proliferation/viability assay; format: cell-based, human; conditions: Homo sapiens
[2] = biological target: PI3 Kinase (p110β/p85α)(h) (Homo sapiens (Human), UniProt P42338); experiment: IC50 profiler radiometric kinase assay (Millipore); format: biochemical; conditions: Lipid/Atypical
p70S6K(h) = p70S6K(h) (Homo sapiens, UniProt P23443); experiment: IC50 profiler radiometric kinase assay (Millipore); format: biochemical; conditions: AGC
MKK6(h) = MKK6(h) (Homo sapiens (Human), UniProt P52564); experiment: IC50 profiler radiometric kinase assay (Millipore); format: biochemical; conditions: STE
Description: (§1) In order to determine the relative enzyme selectivity of these amino naphthyridinones, representative amino naphthyridinones were evaluated for their ability to inhibit various kinases. Kinases were selected for a broad representation of the kinome (see FIG. 2: Kinases Evaluated). Compounds were evaluated using the IC50 profiler assay (Millipore), which measures substrate phosphorylation via γ-^33P-ATP transfer by the kinase of interest.
(§2) The assay directly measures the catalytic incorporation of phosphate onto kinase substrates. The kinase protein is incubated in buffer with substrate and γ-^33P-ATP. The reaction is initiated by the addition of the Mg-ATP mix. At the end of the reaction incubation time, the reaction is stopped by the addition of phosphoric acid solution and 10 μL of the reaction is spotted onto a filtermat, washed, dried and counted in scintillation fluid. […] In particular the amino naphthyridinones inhibited Abl and some but not all tested members of the Tec and Src families of tyrosine kinases, but not tyrosine-like kinases or the non-tyrosine kinases tested (See FIG. 2: Compound 1). […] Other known drugs with activity against BTK and SFKs, such as dasatinib and bosutinib, have activity against a broader array of tyrosine kinases as well as inhibiting non-tyrosine kinases (See FIG. 2: Dasatinib).

PAK2(h) = PAK2(h) (Homo sapiens (Human), UniProt Q13177); experiment: IC50 profiler radiometric kinase assay (Millipore); format: biochemical; conditions: STE
Description: as §1, §2

Bmx(h) = Bmx(h) (Homo sapiens (Human), UniProt P51813); experiment: IC50 profiler radiometric kinase assay (Millipore); format: biochemical; conditions: TK
Description: as §1, §2

Lyn(h) = Lyn(h) (Homo sapiens (Human), UniProt P07948); experiment: IC50 profiler radiometric kinase assay (Millipore); format: biochemical; conditions: TK
Description: as §1, §2

Src(1-530)(h) = Src(1-530)(h) (Homo sapiens (Human), UniProt P12931); experiment: IC50 profiler radiometric kinase assay (Millipore); format: biochemical; conditions: TK
Description: as §1, §2

ASK1(h) = ASK1(h) (Homo sapiens (Human), UniProt Q99683); experiment: IC50 profiler radiometric kinase assay (Millipore); format: biochemical; conditions: STE
Description: as §1, §2

CK1δ(h) = CK1δ(h) (Homo sapiens (Human), UniProt P48730); experiment: IC50 profiler radiometric kinase assay (Millipore); format: biochemical; conditions: CK1
Description: as §1, §2

PKCα(h) = PKCα(h) (Homo sapiens (Human), UniProt P17252); experiment: IC50 profiler radiometric kinase assay (Millipore); format: biochemical; conditions: AGC
Description: as §1, §2

Abl(T315I)(h) = Abl(T315I)(h) (Homo sapiens (Human), UniProt P00519, T315I); experiment: IC50 profiler radiometric kinase assay (Millipore); format: biochemical; conditions: TK
Description: as §1, §2

KDR(h) = KDR(h) (Homo sapiens (Human), UniProt P35968); experiment: IC50 profiler radiometric kinase assay (Millipore); format: biochemical; conditions: TK
Description: as §1, §2

BTK(R28H)(h) = BTK(R28H)(h) (Homo sapiens (Human), UniProt Q06187, R28H); experiment: IC50 profiler radiometric kinase assay (Millipore); format: biochemical; conditions: TK
Description: as §1, §2

TGFBR1(h) = TGFBR1(h) (Homo sapiens (Human), UniProt P36897); experiment: IC50 profiler radiometric kinase assay (Millipore); format: biochemical; conditions: TKL
Description: as §1, §2

Syk(h) = Syk(h) (Homo sapiens (Human), UniProt P43405); experiment: IC50 profiler radiometric kinase assay (Millipore); format: biochemical; conditions: TK
Description: as §1, §2

Plk1(h) = Plk1(h) (Homo sapiens (Human), UniProt P53350); experiment: IC50 profiler radiometric kinase assay (Millipore); format: biochemical; conditions: MISC
Description: as §1, §2

SAPK2b(h) = SAPK2b(h) (Homo sapiens (Human), UniProt Q15759); experiment: IC50 profiler radiometric kinase assay (Millipore); format: biochemical; conditions: CMGC
Description: as §1, §2

cSRC(h) = cSRC(h) (Homo sapiens (Human), UniProt P12931); experiment: IC50 profiler radiometric kinase assay (Millipore); format: biochemical; conditions: TK
Description: as §1, §2

IKKα(h) = IKKα(h) (Homo sapiens (Human), UniProt O15111); experiment: IC50 profiler radiometric kinase assay (Millipore); format: biochemical; conditions: MISC
Description: as §1, §2

MEK1(h) = MEK1(h) (Homo sapiens (Human), UniProt Q02750); experiment: IC50 profiler radiometric kinase assay (Millipore); format: biochemical; conditions: STE
Description: as §1, §2

Flt3(h) = Flt3(h) (Homo sapiens (Human), UniProt P36888); experiment: IC50 profiler radiometric kinase assay (Millipore); format: biochemical; conditions: TK
Description: as §1, §2

Met(h) = Met(h) (Homo sapiens (Human), UniProt P08581); experiment: IC50 profiler radiometric kinase assay (Millipore); format: biochemical; conditions: TK
Description: as §1, §2

mTOR(h) = mTOR(h) (Homo sapiens (Human), UniProt P42345); experiment: IC50 profiler radiometric kinase assay (Millipore); format: biochemical; conditions: Lipid/Atypical
Description: as §1, §2

c-Kit(h) = c-Kit(h) (Homo sapiens (Human), UniProt P10721); experiment: IC50 profiler radiometric kinase assay (Millipore); format: biochemical; conditions: TK
Description: as §1, §2

SAPK2a(h) = SAPK2a(h) (Homo sapiens (Human), UniProt Q16539); experiment: IC50 profiler radiometric kinase assay (Millipore); format: biochemical; conditions: CMGC
Description: as §1, §2

Abl(h) = Abl(h) (Homo sapiens (Human), UniProt P00519); experiment: IC50 profiler radiometric kinase assay (Millipore); format: biochemical; conditions: TK
Description: as §1, §2

CSK(h) = CSK(h) (Homo sapiens (Human), UniProt P41240); experiment: IC50 profiler radiometric kinase assay (Millipore); format: biochemical; conditions: TK
Description: as §1, §2

[3] = DOHH-2, 48 hrs, read-out: DoHH2 EC50

Chain of Bmx(h) (P51813 whole entry): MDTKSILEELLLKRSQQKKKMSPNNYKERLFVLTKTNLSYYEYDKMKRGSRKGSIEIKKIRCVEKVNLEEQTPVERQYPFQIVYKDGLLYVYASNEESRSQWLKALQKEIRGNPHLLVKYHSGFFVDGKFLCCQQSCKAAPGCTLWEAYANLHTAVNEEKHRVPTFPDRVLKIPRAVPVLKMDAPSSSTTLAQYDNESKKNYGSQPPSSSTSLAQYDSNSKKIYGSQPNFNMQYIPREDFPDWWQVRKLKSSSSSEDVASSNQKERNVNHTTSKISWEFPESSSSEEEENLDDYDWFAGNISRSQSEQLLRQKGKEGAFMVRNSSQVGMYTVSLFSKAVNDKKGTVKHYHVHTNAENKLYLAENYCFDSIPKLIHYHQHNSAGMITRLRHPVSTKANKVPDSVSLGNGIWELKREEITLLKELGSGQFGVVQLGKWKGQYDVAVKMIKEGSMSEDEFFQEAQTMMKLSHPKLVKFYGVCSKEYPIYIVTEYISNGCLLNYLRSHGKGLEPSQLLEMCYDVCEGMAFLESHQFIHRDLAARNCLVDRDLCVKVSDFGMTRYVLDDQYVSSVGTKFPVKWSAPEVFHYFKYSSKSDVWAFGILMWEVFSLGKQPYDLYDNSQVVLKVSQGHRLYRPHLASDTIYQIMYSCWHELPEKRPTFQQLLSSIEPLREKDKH
Chain of CK1δ(h) (P48730 whole entry): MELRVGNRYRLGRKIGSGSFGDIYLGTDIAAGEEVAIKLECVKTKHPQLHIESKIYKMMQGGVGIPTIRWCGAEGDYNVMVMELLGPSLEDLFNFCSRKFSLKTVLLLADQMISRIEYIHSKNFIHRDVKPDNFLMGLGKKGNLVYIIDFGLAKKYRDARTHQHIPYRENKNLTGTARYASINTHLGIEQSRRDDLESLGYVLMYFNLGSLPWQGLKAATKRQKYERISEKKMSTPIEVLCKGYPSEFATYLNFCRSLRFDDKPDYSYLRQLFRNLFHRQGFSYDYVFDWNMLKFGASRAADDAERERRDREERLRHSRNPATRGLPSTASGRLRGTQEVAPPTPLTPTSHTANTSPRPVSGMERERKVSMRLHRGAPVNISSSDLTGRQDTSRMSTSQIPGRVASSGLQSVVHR
Chain of PI3 Kinase (p110α/p85α)(h) (P42336 whole entry): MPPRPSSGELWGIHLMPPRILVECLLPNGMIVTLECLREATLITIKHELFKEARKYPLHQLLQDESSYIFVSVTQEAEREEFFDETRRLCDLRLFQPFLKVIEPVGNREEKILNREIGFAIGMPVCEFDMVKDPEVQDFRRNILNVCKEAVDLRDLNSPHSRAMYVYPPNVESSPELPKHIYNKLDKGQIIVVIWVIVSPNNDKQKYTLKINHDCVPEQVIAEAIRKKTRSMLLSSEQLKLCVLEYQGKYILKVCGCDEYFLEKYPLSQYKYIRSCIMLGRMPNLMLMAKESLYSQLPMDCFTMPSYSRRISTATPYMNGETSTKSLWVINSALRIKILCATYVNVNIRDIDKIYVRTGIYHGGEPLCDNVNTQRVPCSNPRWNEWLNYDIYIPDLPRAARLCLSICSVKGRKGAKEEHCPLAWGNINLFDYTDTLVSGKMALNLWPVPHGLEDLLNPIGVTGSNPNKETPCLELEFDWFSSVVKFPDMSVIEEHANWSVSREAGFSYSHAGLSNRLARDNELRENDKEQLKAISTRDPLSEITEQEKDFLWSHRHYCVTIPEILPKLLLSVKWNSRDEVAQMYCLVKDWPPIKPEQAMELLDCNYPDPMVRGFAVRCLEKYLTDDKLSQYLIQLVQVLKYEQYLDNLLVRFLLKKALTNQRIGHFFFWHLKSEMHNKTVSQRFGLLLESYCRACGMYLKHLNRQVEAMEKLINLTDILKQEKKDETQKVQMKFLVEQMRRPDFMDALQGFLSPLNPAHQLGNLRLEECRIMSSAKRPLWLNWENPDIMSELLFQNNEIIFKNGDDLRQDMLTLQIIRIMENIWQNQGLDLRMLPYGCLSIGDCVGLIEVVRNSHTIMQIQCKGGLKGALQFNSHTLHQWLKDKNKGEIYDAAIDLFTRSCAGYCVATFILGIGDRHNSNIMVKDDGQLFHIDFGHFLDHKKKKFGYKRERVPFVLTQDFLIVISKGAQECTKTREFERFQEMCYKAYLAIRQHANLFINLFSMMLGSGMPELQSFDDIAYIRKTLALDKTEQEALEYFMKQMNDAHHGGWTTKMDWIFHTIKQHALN
Chain of PI3 Kinase (p110α/p85α)(h) (P27986 whole entry partner): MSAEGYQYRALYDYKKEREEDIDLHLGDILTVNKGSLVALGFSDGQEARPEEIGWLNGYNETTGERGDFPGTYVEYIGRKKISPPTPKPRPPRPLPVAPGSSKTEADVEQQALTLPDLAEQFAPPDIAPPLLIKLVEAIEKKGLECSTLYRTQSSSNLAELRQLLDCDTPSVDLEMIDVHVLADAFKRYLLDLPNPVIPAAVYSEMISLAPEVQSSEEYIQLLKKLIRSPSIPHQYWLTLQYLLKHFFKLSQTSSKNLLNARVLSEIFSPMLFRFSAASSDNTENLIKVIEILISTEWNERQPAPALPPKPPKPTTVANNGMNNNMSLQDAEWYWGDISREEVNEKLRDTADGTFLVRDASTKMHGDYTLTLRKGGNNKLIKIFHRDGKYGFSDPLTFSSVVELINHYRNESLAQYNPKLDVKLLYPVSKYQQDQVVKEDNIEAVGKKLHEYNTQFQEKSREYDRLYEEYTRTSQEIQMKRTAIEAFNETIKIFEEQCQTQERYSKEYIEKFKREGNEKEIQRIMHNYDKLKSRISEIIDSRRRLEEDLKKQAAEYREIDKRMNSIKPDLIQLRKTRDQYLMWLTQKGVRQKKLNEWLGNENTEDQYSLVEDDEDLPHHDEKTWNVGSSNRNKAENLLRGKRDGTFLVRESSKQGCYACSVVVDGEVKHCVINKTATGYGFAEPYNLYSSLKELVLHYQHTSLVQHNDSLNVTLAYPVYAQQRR
Chain of PI3 Kinase (p110β/p85α)(h) (P42338 whole entry): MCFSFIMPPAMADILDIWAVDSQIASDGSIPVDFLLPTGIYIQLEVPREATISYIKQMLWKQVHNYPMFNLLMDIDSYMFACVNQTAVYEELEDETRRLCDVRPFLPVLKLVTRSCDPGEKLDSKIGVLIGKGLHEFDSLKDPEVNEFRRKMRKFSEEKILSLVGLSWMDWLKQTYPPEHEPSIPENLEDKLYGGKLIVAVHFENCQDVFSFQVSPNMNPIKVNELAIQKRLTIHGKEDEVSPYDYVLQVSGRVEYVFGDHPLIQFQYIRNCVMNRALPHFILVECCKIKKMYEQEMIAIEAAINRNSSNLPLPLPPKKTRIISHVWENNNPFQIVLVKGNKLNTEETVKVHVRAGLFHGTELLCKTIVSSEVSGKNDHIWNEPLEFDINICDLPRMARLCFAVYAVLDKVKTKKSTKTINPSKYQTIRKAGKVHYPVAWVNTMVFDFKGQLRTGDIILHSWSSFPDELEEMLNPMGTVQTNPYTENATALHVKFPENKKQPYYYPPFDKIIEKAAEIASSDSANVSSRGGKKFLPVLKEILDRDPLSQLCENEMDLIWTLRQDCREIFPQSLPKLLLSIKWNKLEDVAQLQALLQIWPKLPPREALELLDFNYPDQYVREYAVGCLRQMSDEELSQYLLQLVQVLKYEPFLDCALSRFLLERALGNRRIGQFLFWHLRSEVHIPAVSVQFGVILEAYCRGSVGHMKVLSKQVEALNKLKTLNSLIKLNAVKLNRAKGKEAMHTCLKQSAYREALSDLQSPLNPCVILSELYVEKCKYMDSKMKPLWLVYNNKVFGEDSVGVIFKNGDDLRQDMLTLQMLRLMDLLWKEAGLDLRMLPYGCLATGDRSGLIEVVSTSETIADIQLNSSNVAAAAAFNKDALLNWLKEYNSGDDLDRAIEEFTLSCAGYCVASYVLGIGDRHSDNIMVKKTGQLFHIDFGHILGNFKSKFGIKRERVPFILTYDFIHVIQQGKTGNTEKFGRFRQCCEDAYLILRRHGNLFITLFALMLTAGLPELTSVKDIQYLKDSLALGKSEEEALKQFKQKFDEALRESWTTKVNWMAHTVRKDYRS
Chain of PI3 Kinase (p110β/p85α)(h) (P27986 whole entry partner): as the sequence (P27986 whole entry partner) above
Chain of SAPK2b(h) (Q15759 whole entry): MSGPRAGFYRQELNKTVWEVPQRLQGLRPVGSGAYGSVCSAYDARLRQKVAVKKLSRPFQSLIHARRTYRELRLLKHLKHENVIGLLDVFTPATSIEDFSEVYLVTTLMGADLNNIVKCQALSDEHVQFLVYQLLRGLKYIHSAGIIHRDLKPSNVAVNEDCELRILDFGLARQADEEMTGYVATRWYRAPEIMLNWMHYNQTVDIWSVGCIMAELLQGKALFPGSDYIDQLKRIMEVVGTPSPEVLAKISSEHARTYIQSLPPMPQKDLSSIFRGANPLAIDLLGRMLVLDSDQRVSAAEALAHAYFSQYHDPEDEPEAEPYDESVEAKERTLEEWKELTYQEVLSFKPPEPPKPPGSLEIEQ
Chain of PAK2(h) (Q13177 whole entry): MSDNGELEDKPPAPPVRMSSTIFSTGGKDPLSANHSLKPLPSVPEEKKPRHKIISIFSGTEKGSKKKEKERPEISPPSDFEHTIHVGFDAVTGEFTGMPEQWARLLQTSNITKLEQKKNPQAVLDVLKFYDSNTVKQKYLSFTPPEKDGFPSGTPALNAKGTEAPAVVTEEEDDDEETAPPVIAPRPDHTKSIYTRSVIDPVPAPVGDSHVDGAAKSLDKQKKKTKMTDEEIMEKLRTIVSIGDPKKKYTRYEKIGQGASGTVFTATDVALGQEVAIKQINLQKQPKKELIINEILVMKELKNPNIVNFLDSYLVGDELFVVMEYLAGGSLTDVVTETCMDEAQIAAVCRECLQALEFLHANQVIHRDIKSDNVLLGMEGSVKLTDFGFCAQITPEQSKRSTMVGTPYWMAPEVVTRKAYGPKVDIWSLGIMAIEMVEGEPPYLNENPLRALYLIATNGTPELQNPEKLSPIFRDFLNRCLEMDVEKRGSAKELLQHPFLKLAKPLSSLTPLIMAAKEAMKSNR

Structure (SMILES)	IC50 (CDK2/cyclinA(h)) [µM]	IC50 (BTK) [µM]	IC50 [1] [µM]	IC50 (CaMKI(h)) [µM]	EC50 (DoHH2; [3]) [µM]	IC50 [2] [µM]	IC50 (p70S6K(h)) [µM]	IC50 (MKK6(h)) [µM]	IC50 (PAK2(h)) [µM]	IC50 (Bmx(h)) [µM]	IC50 (Lyn(h)) [µM]	IC50 (Src(1-530)(h)) [µM]	IC50 (ASK1(h)) [µM]	IC50 (CK1δ(h)) [µM]	IC50 (PKCα(h)) [µM]	IC50 (Abl(T315I)(h)) [µM]	IC50 (KDR(h)) [µM]	IC50 (BTK(R28H)(h)) [µM]	IC50 (TGFBR1(h)) [µM]	IC50 (Syk(h)) [µM]	other results
CCN(CC)CCOc1ccc(Nc2cc3c(cn2)cc(-c2ccccc2)c(=O)n3CC)nc1 [Compound 1, 7-[5-(2-Diethylamino-ethoxy)-pyridin-2-ylamino]-1-ethyl-3-phenyl-1H-[1, 6]naphthyridin-2-one]	> 1	< 0.1	> 1	> 1	< 1	> 1	> 1	> 1	> 1	< 0.01	< 0.01	< 0.01	> 1	> 1	> 1	0.1 to 0.5	0.1 to 0.5	0.5 to 1	0.1 to 0.5	> 1	EC50 (Ramos; 48 hrs): 1 to 10 µM; IC50 (Lyn): 0.1 to 1 µM; EC50 (DoHH2; DOHH-2, read-out: EC50 (Proliferation)): < 1 µM; IC50 (Plk1(h)): > 1 µM; IC50 (SAPK2b(h)): > 1 µM; IC50 (cSRC(h)): < 0.01 µM; IC50 (IKKα(h)): > 1 µM; IC50 (MEK1(h)): > 1 µM; IC50 (Flt3(h)): > 1 µM; IC50 (Met(h)): > 1 µM; IC50 (mTOR(h)): > 1 µM; IC50 (c-Kit(h)): 0.1 to 0.5 µM; IC50 (SAPK2a(h)): 0.5 to 1 µM; IC50 (Abl(h)): < 0.01 µM; IC50 (CSK(h)): 0.5 to 1 µM
CCn1c(=O)c(-c2ccccc2)cc2cnc(Nc3ncc(CCN(C)C)s3)cc21 [Compound 2, 7-[5-(2-Dimethylamino-ethyl)-thiazol-2-ylamino]-1-ethyl-3-phenyl-1H-[1,6]naphthyridin-2-one]	> 1	> 5	> 1	> 1	1 to 10	> 1	> 1	> 1	> 1	0.01 to 0.1	< 0.01	0.01 to 0.1	> 1	> 1	> 1	0.5 to 1	0.5 to 1	> 1	0.5 to 1	> 1	EC50 (Ramos; 48 h): 1 to 10 µM; IC50 (Lyn; Lyn IC50): 1 to 5 µM; IC50 (Plk1(h)): > 1 µM; IC50 (SAPK2b(h)): > 1 µM; IC50 (cSRC(h)): 0.1 to 0.5 µM; IC50 (IKKα(h)): > 1 µM; IC50 (MEK1(h)): > 1 µM; IC50 (Flt3(h)): > 1 µM; IC50 (Met(h)): > 1 µM; IC50 (mTOR(h)): > 1 µM; IC50 (c-Kit(h)): 0.1 to 0.5 µM; IC50 (SAPK2a(h)): > 1 µM; IC50 (Abl(h)): 0.01 to 0.1 µM; IC50 (CSK(h)): > 1 µM
